Seven compounds from PubChem BioAssay (NCI) can be followed below.

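In this assay, cells in 96-well plates receive the compound at five concentrations for 48 hours. Endpoints are linearly interpolated between the surrounding concentrations. TGI: concentration producing complete growth inhibition.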

Experiment in all cases: NCI-60 cell line screen, 48 h
Test [1] has as its system 786-0 renal.
Test [2] concerns A549 NSCLC.
The test system of test [3] is BT-549 breast.
The test system of test [4] is CAKI-1 renal.
The subject of test [5] is DU-145 prostate.
Test [6] relates to HCC-2998 colon.
Test [7] has as its system HT29 colon.
Test [8] relates to IGROV1 ovarian.
For test [9], the system named is MALME-3M melanoma.
For test [10], the system named is NCI-H23 lung.
For test [11], the system named is SF-268 CNS.
Test [12] has as its system SW-620 colon.
For test [13], the system named is T-47D breast.
Test [14] relates to UACC-257 melanoma.
The test system of test [15] is UACC-62 melanoma.
The subject of test [16] is UO-31 renal.
Test [17] deals with HOP-92 NSCLC.

Turning to `CN1CCN(Cc2nc3c(s2)CCc2sccc2-3)CC1`, the TGI in test [1], in test [2], in test [3], in test [4], in test [5] and in test [6] was over 100 µM in each case. For the same compound, the TGI in [7], in test [8], in [9], in test [10], in test [11] and in test [12] was over 100 µM each time. Moreover, the TGI in test [13] was over 100 µM; in test [14] it was over 100 µM; in test [15] it was 57 µM; in [16], over 100 µM.
On to `Cc1cc(S(=O)(=O)NC(=NCCc2ccccc2)NN)c(S)cc1Cl`, for which the TGI was over 100 µM in [1]; over 100 µM in [2]; 66.2 µM in [3]; over 100 µM in test [4]; 34.6 µM in [5]; 50.6 µM in test [6]. The TGI in [7] was over 100 µM; in test [8], over 100 µM; in test [9], 68.6 µM; in [11], 79.7 µM; in test [12], 82.5 µM; in [13] it was 63 µM. The TGI in test [14] is over 100 µM; in [15], 40 µM; in [16] it was 56.9 µM.
Regarding `Cc1cc2c(cc1Cl)SC(NNC1=NCCN1)=NS2(=O)=O`, the TGI in test [1], in [2], in test [3], in test [4], in [5] and in [6] was over 10 µM throughout. In addition, the TGI in test [7], in test [8], in test [9], in test [10], in test [11] and in test [12] was over 10 µM each time. Also, the TGI in test [13], in test [14], in test [15] and in [16] was over 10 µM throughout.
With `COC(=O)/N=[N+](\[O-])C(c1ccccc1)c1ccccc1`, the TGI in [1], in test [2], in [3], in [4], in [5] and in test [6] was over 100 µM in each case. Moreover, the TGI in [7], in test [8], in test [9], in test [10], in test [11] and in test [12] was over 100 µM in each case. For the same compound, the TGI in test [13] was over 100 µM; in test [14], over 100 µM; in test [15], over 100 µM; in test [16], 70.9 µM.
As to `COc1ccc2c(c1OC)C(=O)N/C2=C\c1c(CCN(C)C)cc2c(c1OC)OCO2`, the TGI in test [1], in test [2], in [3], in [5], in test [6] and in test [17] was over 100 µM each time. The TGI in test [7], in [8], in test [9], in test [10], in [11] and in test [12] was over 100 µM each time. For the same compound, the TGI in [13] and in [14] was over 100 µM throughout.
For the compound `C(#CC1(Nc2ccccc2)CCN(Cc2ccccc2)CC1)C1(Nc2ccccc2)CCN(Cc2ccccc2)CC1`, the TGI was 39.5 µM in test [1]; over 56.2 µM in test [2]; over 100 µM in test [3]; 44.5 µM in [4]; over 56.2 µM in [5]; over 100 µM in test [6]. For the same compound, the TGI is 33.9 µM in test [17]; 39.4 µM in test [7]; over 46.4 µM in test [8]; over 65.6 µM in test [9]; over 56.2 µM in [10]; 47.8 µM in [11]. Further, the TGI in test [12] was over 56.2 µM; in test [13], over 100 µM; in test [15] it was 21.4 µM; in test [16], over 84.7 µM.
In the case of `CC(=O)n1[nH]c(=O)n(-c2ccccc2)c1=O`, the TGI in test [1], in test [2], in test [3], in test [4], in [5] and in test [6] was over 100 µM throughout. Further, the TGI in test [7], in [8], in [9], in [10], in test [11] and in [12] was over 100 µM each time. In addition, the TGI in [13], in [14], in test [15] and in test [16] was over 100 µM in each case.
